Assay results reported in ChEMBL document CHEMBL5512683, “Discovery of Novel ERα and Aromatase Dual-Targeting PROTAC Degraders to Overcome Endocrine-Resistant Breast Cancer” (J Med Chem, 2024).
The source made the active and inactive calls. No cut-off for these calls is given here.

What was measured:
[1] = Anti-proliferative activity against human MCF-10A cells incubated for 96 hrs by CCK8 assay; assay type: toxicity, cell-based
MCF7 [2] = assay: Antiproliferative activity against human resistant MCF7 cells harboring ERalpha Y537S mutant at LBD assessed as cell viability incubated for 96 hrs by CCK8 assay; conditions: MCF7, 96 h
Aromatase = target: T1, Aromatase (Homo sapiens, UniProt P11511); assay: Inhibition of recombinant human aromatase using ARO substrate/NADP+ mixture by fluorescence assay
T1 sequence (P11511 whole entry): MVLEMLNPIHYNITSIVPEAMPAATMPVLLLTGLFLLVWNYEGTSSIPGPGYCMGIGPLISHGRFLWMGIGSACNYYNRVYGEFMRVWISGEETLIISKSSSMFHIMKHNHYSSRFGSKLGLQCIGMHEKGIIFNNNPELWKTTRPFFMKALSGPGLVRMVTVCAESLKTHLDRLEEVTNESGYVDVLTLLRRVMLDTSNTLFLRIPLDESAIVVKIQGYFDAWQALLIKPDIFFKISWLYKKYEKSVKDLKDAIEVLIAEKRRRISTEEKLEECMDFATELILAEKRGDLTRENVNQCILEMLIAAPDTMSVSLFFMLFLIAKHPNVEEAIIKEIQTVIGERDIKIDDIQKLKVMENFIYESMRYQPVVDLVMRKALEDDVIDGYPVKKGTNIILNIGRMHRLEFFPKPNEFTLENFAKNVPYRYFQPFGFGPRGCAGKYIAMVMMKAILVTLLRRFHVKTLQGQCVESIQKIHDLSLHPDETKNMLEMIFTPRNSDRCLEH

MCF7 [3] = assay: Antiproliferative activity against human resistant MCF7 cells harboring EGFR assessed as cell viability incubated for 96 hrs by CCK8 assay; conditions: MCF7, 96 h
[4] = target: von Hippel-Lindau disease tumor suppressor/Aromatase (Homo sapiens, UniProt P11511+P40337); assay: PROTAC activity at human ARO/VHL E3 ligase in human MCF-7 cells assessed as degradation of ARO at 1 uM incubated for 24 hrs by Western blot analysis; assay type: cell-based; conditions: mcf7, 24 h
Sequence of von Hippel-Lindau disease tumor suppressor/Aromatase (P40337 whole entry, one chain of several): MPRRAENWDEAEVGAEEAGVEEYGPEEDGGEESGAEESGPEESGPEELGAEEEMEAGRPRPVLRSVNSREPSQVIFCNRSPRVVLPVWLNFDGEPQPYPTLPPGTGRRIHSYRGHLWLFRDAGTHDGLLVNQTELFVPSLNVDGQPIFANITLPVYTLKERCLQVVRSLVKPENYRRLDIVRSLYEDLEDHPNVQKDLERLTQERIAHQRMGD

Estrogen receptor beta = Estrogen receptor beta (Homo sapiens, UniProt Q92731); assay: Binding affinity to human ERbeta assessed as inhibition constant incubated under dark condition for 2 hrs by competitive fluorometric binding assay
Sequence of Estrogen receptor beta (Q92731 whole entry, the tested form may be a part): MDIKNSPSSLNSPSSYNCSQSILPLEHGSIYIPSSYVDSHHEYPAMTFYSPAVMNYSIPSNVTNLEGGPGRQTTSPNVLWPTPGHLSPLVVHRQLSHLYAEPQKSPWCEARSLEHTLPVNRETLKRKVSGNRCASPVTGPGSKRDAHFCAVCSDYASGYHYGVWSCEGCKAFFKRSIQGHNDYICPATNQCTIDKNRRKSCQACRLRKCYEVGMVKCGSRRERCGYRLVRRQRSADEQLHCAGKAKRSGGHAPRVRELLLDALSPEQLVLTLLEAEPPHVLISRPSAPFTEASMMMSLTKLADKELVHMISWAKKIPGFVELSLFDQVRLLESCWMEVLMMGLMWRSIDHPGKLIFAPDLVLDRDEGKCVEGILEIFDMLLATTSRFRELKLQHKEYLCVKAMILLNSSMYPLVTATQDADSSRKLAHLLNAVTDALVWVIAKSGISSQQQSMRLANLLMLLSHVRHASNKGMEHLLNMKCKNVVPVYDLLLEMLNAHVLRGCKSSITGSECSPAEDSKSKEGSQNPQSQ

MCF7 [5] = assay: Antiproliferative activity against human resistant MCF7 cells harboring ERalpha D538G mutant at LBD assessed as cell viability incubated for 96 hrs by CCK8 assay; conditions: MCF7, 96 h
MCF7 [6] = assay: Anti-proliferative activity against ERalpha positive human MCF7 cells incubated for 96 hrs by CCK8 assay; conditions: MCF7, 96 h
MCF7 [7] = assay: In vivo PROTAC activity in ERalpha/VHL E3 ligase in human MCF7 cell xenografted in Balb/c mouse model assessed as reduction in ERalpha level in tumor at 5 mg/kg, ip every other day measured upto 20 days; assay type: functional, organism-based; conditions: time <= 20.0 day
MCF7 [8] = assay: In vivo PROTAC activity in aromatase/VHL E3 ligase in human MCF7 cell xenografted in Balb/c mouse model assessed as reduction in ARO level in tumor at 5 mg/kg, ip every other day measured upto 20 days; assay type: functional, organism-based; conditions: time <= 20.0 day

Row | Structure (SMILES) | IC50 at 96 h [1] [µM] | IC50 (MCF7 [2]) [µM] | IC50 (Aromatase) [µM] | IC50 (MCF7 [3]) [µM] | Activity [4] | Ki (Estrogen receptor beta) [µM] | IC50 (MCF7 [5]) [µM] | IC50 (MCF7 [6]) [µM] | Activity (MCF7 [7]) | Activity (MCF7 [8])
1 | Cc1ncsc1-c1ccc([C@H](C)NC(=O)[C@@H]2C[C@@H](O)CN2C(=O)[C@@H](NC(=O)COCCOc2ccc(N(CC(F)(F)F)S(=O)(=O)C3CC4OC3C(c3ccc(-n5ccnc5)cc3)=C4c3ccc(O)cc3)cc2)C(C)(C)C)cc1 (stereo partly specified) | > 100 | 15 | 3.9 | > 100 | Active | > 79 | > 100 | 1.5 | – | –
2 | Cc1ncsc1-c1ccc([C@H](C)NC(=O)[C@@H]2C[C@@H](O)CN2C(=O)[C@@H](NC(=O)CCCCCCCOc2ccc(N(CC(F)(F)F)S(=O)(=O)C3CC4OC3C(c3ccc(-n5ccnc5)cc3)=C4c3ccc(O)cc3)cc2)C(C)(C)C)cc1 (stereo partly specified) | > 100 | 30 | 10 | 4.7 | Active | – | 29 | 1.8 | – | –
3 | Cc1ncsc1-c1ccc([C@H](C)NC(=O)[C@@H]2C[C@@H](O)CN2C(=O)[C@@H](NC(=O)CCCCCCCCOc2ccc(N(CC(F)(F)F)S(=O)(=O)C3CC4OC3C(c3ccc(-n5ccnc5)cc3)=C4c3ccc(O)cc3)cc2)C(C)(C)C)cc1 (stereo partly specified) | > 100 | 100 | > 100 | 1.4 | Active | > 79 | 1.8 | 1.3 | – | –
4 | COc1ccc(N(CC(F)(F)F)S(=O)(=O)C2CC3OC2C(c2ccc(O)cc2)=C3c2ccc(O)cc2)cc1 (stereo unspecified) | – | – | > 100 | – | – | – | – | – | – | –
5 | Cc1ncsc1-c1ccc([C@H](C)NC(=O)[C@@H]2C[C@@H](O)CN2C(=O)[C@@H](NC(=O)CCCCCCCCCCCOc2ccc(N(CC(F)(F)F)S(=O)(=O)C3CC4OC3C(c3ccc(-n5ccnc5)cc3)=C4c3ccc(O)cc3)cc2)C(C)(C)C)cc1 (stereo partly specified) | > 100 | 3.5 | > 100 | > 100 | Active | > 79 | 0.23 | 2 | – | –
6 | C[C@]12CC[C@@H]3c4ccc(O)cc4C[C@@H](CCCCCCCCC[S+]([O-])CCCC(F)(F)C(F)(F)F)[C@H]3[C@@H]1CC[C@@H]2O (stereo partly specified) [FULVESTRANT] | > 100 | – | > 100 | – | – | – | – | – | Active | Active
7 | Cc1ncsc1-c1ccc([C@H](C)NC(=O)[C@@H]2C[C@@H](O)CN2C(=O)[C@@H](NC(=O)CCCCOc2ccc(N(CC(F)(F)F)S(=O)(=O)C3CC4OC3C(c3ccc(-n5ccnc5)cc3)=C4c3ccc(O)cc3)cc2)C(C)(C)C)cc1 (stereo partly specified) | > 100 | > 100 | 0.32 | 2.2 | Active | – | 100 | 0.6 | – | –
8 | CC/C(=C(\c1ccc(O)cc1)c1ccc(OCCN(C)C)cc1)c1ccccc1 [AFIMOXIFENE] | 21 | – | > 100 | – | – | – | – | – | – | –
9 | Cc1ncsc1-c1ccc([C@H](C)NC(=O)[C@@H]2C[C@@H](O)CN2C(=O)[C@@H](NC(=O)CCCCCOc2ccc(N(CC(F)(F)F)S(=O)(=O)C3CC4OC3C(c3ccc(-n5cncn5)cc3)=C4c3ccc(O)cc3)cc2)C(C)(C)C)cc1 (stereo partly specified) | > 100 | 4 | > 100 | 0.63 | – | – | 0.69 | 0.56 | – | –
10 | O=C(COc1cccc2c1C(=O)N(C1CCC(=O)NC1=O)C2=O)NCCCOc1ccc(N(CC(F)(F)F)S(=O)(=O)C2CC3OC2C(c2ccc(-n4ccnc4)cc2)=C3c2ccc(O)cc2)cc1 (stereo unspecified) | > 100 | 9.5 | > 100 | 25 | – | > 79 | 6.4 | 8.7 | – | –
11 | Cc1ncsc1-c1ccc([C@H](C)NC(=O)[C@@H]2C[C@@H](O)CN2C(=O)[C@@H](NC(=O)CCCCCCOc2ccc(N(CC(F)(F)F)S(=O)(=O)C3CC4OC3C(c3ccc(-n5ccnc5)cc3)=C4c3ccc(O)cc3)cc2)C(C)(C)C)cc1 (stereo partly specified) | > 100 | > 100 | 5.2 | 5.5 | Active | – | 1.7 | 2.3 | – | –
12 | Cc1ncsc1-c1ccc([C@H](C)NC(=O)[C@@H]2C[C@@H](O)CN2C(=O)[C@@H](NC(=O)CCCCCCCCCOc2ccc(N(CC(F)(F)F)S(=O)(=O)C3CC4OC3C(c3ccc(-n5ccnc5)cc3)=C4c3ccc(O)cc3)cc2)C(C)(C)C)cc1 (stereo partly specified) | > 100 | 100 | > 100 | > 100 | Active | > 79 | > 100 | 0.33 | – | –
13 | O=C(COc1cccc2c1C(=O)N(C1CCC(=O)NC1=O)C2=O)NCCCCCOc1ccc(N(CC(F)(F)F)S(=O)(=O)C2CC3OC2C(c2ccc(-n4ccnc4)cc2)=C3c2ccc(O)cc2)cc1 (stereo unspecified) | > 100 | 23 | > 100 | 23 | – | > 79 | 3.6 | 9.3 | – | –
14 | Cc1ncsc1-c1ccc([C@H](C)NC(=O)[C@@H]2C[C@@H](O)CN2C(=O)[C@@H](NC(=O)CCCOc2ccc(N(CC(F)(F)F)S(=O)(=O)C3CC4OC3C(c3ccc(-n5ccnc5)cc3)=C4c3ccc(O)cc3)cc2)C(C)(C)C)cc1 (stereo partly specified) | > 100 | > 100 | 1.2 | > 100 | Active | – | > 100 | 0.13 | – | –
15 | Cc1ncsc1-c1ccc([C@@H](C)NC(=O)[C@H]2C[C@H](O)CN2C(=O)[C@H](NC(=O)COCCOCCOCCOc2ccc(N(CC(F)(F)F)S(=O)(=O)C3CC4OC3C(c3ccc(-n5ccnc5)cc3)=C4c3ccc(O)cc3)cc2)C(C)(C)C)cc1 (stereo partly specified) | > 100 | 100 | 2.6 | 7.3 | Active | – | > 100 | 0.51 | – | –
16 | N#Cc1ccc(C(c2ccc(C#N)cc2)n2cncn2)cc1 [LETROZOLE] | > 100 | – | – | – | – | – | – | – | Active | Active
17 | Cc1ncsc1-c1ccc([C@H](C)NC(=O)[C@@H]2C[C@@H](O)CN2C(=O)[C@@H](NC(=O)CCCCCCCCCCOc2ccc(N(CC(F)(F)F)S(=O)(=O)C3CC4OC3C(c3ccc(-n5ccnc5)cc3)=C4c3ccc(O)cc3)cc2)C(C)(C)C)cc1 (stereo partly specified) | > 100 | 22 | > 100 | > 100 | Active | – | > 100 | 4.9 | – | –
18 | Cc1ncsc1-c1ccc([C@H](C)NC(=O)[C@@H]2C[C@@H](O)CN2C(=O)[C@@H](NC(=O)COCCOCCOCCOCCOc2ccc(N(CC(F)(F)F)S(=O)(=O)C3CC4OC3C(c3ccc(-n5ccnc5)cc3)=C4c3ccc(O)cc3)cc2)C(C)(C)C)cc1 (stereo partly specified) | > 100 | 100 | 0.64 | 17 | Active | – | 26 | 2.4 | – | –
